From BindingDB's records for doi:10.1021/jm00139a009 (1981)

target: T1, Dihydrofolate reductase (Rattus norvegicus, UniProt Q920D2); assay: Inhibitory activity against dihydrofolate reductase of rat liver
T1 sequence (Q920D2 whole entry): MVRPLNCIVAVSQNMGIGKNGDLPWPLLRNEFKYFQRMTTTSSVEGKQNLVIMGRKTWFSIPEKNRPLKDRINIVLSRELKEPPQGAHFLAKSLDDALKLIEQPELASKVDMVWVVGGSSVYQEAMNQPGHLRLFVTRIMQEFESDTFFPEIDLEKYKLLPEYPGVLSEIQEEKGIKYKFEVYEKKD

Point of comparison: Nc1nc(N)c2cc([S+]([O-])c3ccc4ccccc4c3)ccc2n1 (stereo not drawn), IC50 7.08 nM. Against it:
- Nc1nc(N)c2c(Cl)c(NCc3cccc(Br)c3)ccc2n1 — within 1.5-fold, 7.59 nM
- Nc1nc(N)c2c(Cl)c(NC(=O)Cc3ccc4ccccc4c3)ccc2n1 — within 1.5-fold, 5.01 nM
- Nc1nc(N)c2c(S(=O)(=O)c3ccc4ccccc4c3)cccc2n1 — 2100-fold higher, 15100 nM
- Nc1nc(N)c2cc(Cl)ccc2n1 — 560-fold higher, 3980 nM
- Nc1nc(N)c2c(Cl)c(N)ccc2n1 — 93-fold higher, 661 nM
- Nc1nc(N)c2cc(C=O)ccc2n1 — 1400-fold higher, 10000 nM
- NCc1ccc2nc(N)nc(N)c2c1 — 1300-fold higher, 9330 nM
- Nc1nc(N)c2cc(NC(=O)Cc3ccc4ccccc4c3)ccc2n1 — within 1.5-fold, 5.01 nM
- Nc1nc(N)c2c(Sc3ccc4ccccc4c3)cccc2n1 — the same, 7.08 nM
- Nc1nc(N)c2cc(NC(=O)Cc3ccc(Cl)cc3)ccc2n1 — 3.2-fold higher, 22.9 nM
- Nc1nc(N)c2c(/C=C\c3ccc4ccccc4c3)cccc2n1 — 740-fold higher, 5250 nM
- Nc1nc(N)c2c(Cl)cccc2n1 — 79-fold higher, 562 nM
- Nc1nc(N)c2c(Cl)c(Cl)ccc2n1 — 28-fold higher, 200 nM
- Cc1c(NC(=O)Cc2ccc(Cl)c(Cl)c2)ccc2nc(N)nc(N)c12 — 2.4-fold higher, 17 nM
- Nc1nc(N)c2c([S+]([O-])c3ccc(Cl)c(Cl)c3)cccc2n1 (stereo not drawn) — 7800-fold higher, 55000 nM
- Nc1nc(N)c2cc(NCc3ccc(Cl)c(Cl)c3)ccc2n1 — 2.6-fold higher, 18.2 nM
- Nc1nc(N)c2cc(Sc3ccc(Cl)c(Cl)c3)ccc2n1 — 1.6-fold higher, 11 nM
- Nc1nc(N)c2c(CSc3ccc4ccccc4c3)cccc2n1 — within 1.5-fold, 10 nM
- Nc1nc(N)c2c(/C=C/c3ccc4ccccc4c3)cccc2n1 — 430-fold higher, 3020 nM
- Cc1ccc2nc(N)nc(N)c2c1 — 310-fold higher, 2190 nM
- Nc1nc(N)c2c(S(=O)(=O)c3ccc(Cl)c(Cl)c3)cccc2n1 — 8100-fold higher, 57500 nM
- Cc1c(NC(=O)Cc2cccc(Br)c2)ccc2nc(N)nc(N)c12 — 4.8-fold higher, 33.9 nM
- Nc1nc(N)c2c(CSc3ccc(Cl)cc3)cccc2n1 — 2.8-fold higher, 19.9 nM
- Cc1c(NC(=O)Cc2ccc3ccccc3c2)ccc2nc(N)nc(N)c12 — 1.7-fold lower, 4.17 nM
- Nc1nc(N)c2c(Cl)c(Br)ccc2n1 — 14-fold higher, 100 nM
- Nc1nc(N)c2c(Cl)c(NC(=O)Cc3ccc(Cl)c(Cl)c3)ccc2n1 — 3.4-fold higher, 24 nM
- Nc1nc(N)c2c(Sc3ccc(Cl)c(Cl)c3)cccc2n1 — 28-fold higher, 200 nM
- O=[N+]([O-])c1ccc(/C=C/C=C/c2ccccc2)cc1 — 1.8-fold lower, 3.98 nM
- Cc1cccc2nc(N)nc(N)c12 [GNF-Pf-690] — 110-fold higher, 813 nM
- Nc1ccc2nc(N)nc(N)c2c1 [QUINAZOLINE-2,4,6-TRIAMINE] — 3800-fold higher, 26900 nM
- Nc1nc(N)c2c(CCc3ccc4ccccc4c3)cccc2n1 [TCMDC-141975] — 2.8-fold higher, 19.9 nM
- Nc1nc(N)c2cc(Sc3cccc(C(F)(F)F)c3)ccc2n1 [WR-159412] — 5.1-fold higher, 36.3 nM
